The source of these data is patent US20060074084A1, “Inhibitors of soluble adenylate cyclase” (priority 2004, published 2006).

The structures appear in SMILES notation. pIC50: −log10 of the molar value. Converted amounts (≈) assume the structure as drawn. Read-outs that look alike come from different tables or passages of the source.

Series [1] has as its target soluble, sperm-specific adenylate cyclase (sAC) (Homo sapiens, UniProt Q96PN6). The experiment in a line: sAC-Assay (enzyme test, HTRF cAMP detection). The series is classed as biochemical. The source says:
In a suitable buffer system, the soluble, sperm-specific adenylate cyclase catalyzes the reaction of adenosine triphosphate (ATP) to cyclic adenosine monophosphate (cAMP) and pyrophosphate. Free cAMP that is generated in this way is then used in a competitive detection process, in which the binding of a europium kryptate (Eu[K])-labeled anti-cAMP antibody (anti cAMP-Eu[K]-AK) to a cAMP-molecule-labeled, modified allophycocyanine-1 molecule (cAMP-XL665) is prevented. In the absence of exogenic cAMP, after excitation at 335 nm, it results in a fluorescence resonance energy transfer (FRET) between the anti cAMP-Eu[K]-AK (FRET-donor) and the cAMP-XL665 molecule (FRET-acceptor). This process is quantified at different times (time-resolved) based on the emission of FRET-acceptor XL665 (665 nm and 620 nm). A signal drop (measured as a wave ratio; calculation formula: [(E665 nm/E620 nm)×10000]) can be attributed to the presence of cAMP and thus to the activity of sAC.
First, 1.5 μl of the test substance (in 30% DMSO), only 30% DMSO in the solvent controls, is introduced per recess in a 384-hole test plate (polystyrene; 384, NV). Then, 10 μl of a dilute sAC enzyme solution is recovered (enzyme stock solution in 300 mmol of NaCl, 10% glycerol; pH 7.6; intermediate and final enzyme dilution a) 1:10 and b) 1:2000 in each case in: 1.0 mmol of MnCl2; 0.2% BSA; 50 mmol of tris, pH 7.5 in H2O). The enzyme reaction is started by adding 5 μl of the ATP-substrate solution (200 μmol of ATP in H2O) and is completed after incubation (25 minutes at room temperature) by the addition of 5 μl of stop solution (200 μmol of EDTA in PBS).
Then, 8 μl of detection solution 1 is introduced into a recess of the 384-hole measuring plate (measuring plate: polystyrene; 384, SV—black; detection solution 1:50 μl of cAMP-XL665; 950 μl of reconstitution buffer; 2200 [[…] of PBS; cAMP-XL665: production by the addition of 5 ml of H2O to the freeze-dried product as specified by Cis Bio Kit: #62AMPPEC instructions; storage: aliquoted at −80° C.). Then, 3 μl from the 91.5 μl is added to the corresponding recess of the test plate. Finally, the addition of 8 μl of detection solution 2 (detection solution 2: 50 μl of anti cAMP-Eu[K]-AK; 950 μl of reconstitution buffer; 2200 μl of PBS; anti cAMP-Eu[K]-AK: production as specified by Cis Bio Kit: #62AMPPEC instructions; storage: aliquoted at −80° C.) is carried out.
After an additional incubation of 90 minutes at room temperature, the HTRF result is measured either on the Packard Discovery or with the RubiStar HTRF measuring device (Delay: 50 μs; Integration time: 400 μs).

Another series is described as follows: Solubility. The class given is physicochemical.
[2] abbreviates: comparison with known compounds in the enzyme test.
Setting [3] is: Biological Data table, read-out: Solubility.

Sequence of soluble, sperm-specific adenylate cyclase (sAC) (Q96PN6 whole entry): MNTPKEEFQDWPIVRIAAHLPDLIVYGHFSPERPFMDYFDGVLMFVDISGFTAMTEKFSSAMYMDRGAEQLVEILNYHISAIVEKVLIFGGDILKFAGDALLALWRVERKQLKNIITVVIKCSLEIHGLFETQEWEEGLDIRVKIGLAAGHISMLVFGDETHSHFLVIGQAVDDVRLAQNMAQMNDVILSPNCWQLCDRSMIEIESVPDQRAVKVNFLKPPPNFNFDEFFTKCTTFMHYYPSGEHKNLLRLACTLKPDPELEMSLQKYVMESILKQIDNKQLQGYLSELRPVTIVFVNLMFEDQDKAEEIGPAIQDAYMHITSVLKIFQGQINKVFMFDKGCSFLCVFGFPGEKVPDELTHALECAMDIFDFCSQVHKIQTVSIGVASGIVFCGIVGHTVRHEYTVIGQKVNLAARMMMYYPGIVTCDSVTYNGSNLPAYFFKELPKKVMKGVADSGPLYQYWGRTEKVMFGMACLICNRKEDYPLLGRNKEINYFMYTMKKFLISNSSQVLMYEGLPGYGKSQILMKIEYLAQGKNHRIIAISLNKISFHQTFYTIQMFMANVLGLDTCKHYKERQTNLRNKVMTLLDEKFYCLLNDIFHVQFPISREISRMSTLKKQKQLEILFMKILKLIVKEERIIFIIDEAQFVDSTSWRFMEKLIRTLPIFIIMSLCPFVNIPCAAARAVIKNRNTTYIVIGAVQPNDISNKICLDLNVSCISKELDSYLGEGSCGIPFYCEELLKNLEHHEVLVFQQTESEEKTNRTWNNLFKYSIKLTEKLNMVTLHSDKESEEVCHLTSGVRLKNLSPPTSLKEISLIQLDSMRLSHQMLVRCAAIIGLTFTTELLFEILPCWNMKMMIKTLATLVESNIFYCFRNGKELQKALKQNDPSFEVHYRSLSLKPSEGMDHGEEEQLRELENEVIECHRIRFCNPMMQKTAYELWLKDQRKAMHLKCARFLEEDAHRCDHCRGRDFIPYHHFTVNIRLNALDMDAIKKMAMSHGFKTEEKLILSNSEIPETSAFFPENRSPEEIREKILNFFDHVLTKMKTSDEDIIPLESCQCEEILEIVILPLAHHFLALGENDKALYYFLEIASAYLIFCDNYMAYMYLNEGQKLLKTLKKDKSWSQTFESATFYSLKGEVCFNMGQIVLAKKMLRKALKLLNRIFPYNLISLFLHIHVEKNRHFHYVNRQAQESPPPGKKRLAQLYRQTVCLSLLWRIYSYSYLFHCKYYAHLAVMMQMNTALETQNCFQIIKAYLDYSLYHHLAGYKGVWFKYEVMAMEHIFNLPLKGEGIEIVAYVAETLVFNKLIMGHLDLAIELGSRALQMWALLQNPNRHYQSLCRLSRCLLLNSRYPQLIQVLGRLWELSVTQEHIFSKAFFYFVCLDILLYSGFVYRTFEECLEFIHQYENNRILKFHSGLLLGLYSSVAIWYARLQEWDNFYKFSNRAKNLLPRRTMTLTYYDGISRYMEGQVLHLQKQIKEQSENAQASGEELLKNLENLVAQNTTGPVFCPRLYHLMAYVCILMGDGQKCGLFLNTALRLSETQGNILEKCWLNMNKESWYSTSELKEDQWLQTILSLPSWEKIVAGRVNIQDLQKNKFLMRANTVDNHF

In turn, `C[C@]12CC[C@@H]3c4cc(O)c(O)cc4CC[C@H]3[C@@H]1CC[C@@H]2O` [2-OH-Estradiol, reference compound] showed a pIC50 in series [1] (setting [2]) of 4.96.
Same read-out and setting: to `C[C@]12CC[C@@H]3c4ccc(O)c(O)c4CC[C@H]3[C@@H]1CC[C@@H]2O` [4-OH-Estradiol, reference compound] belongs 4.89.
Compound `CC(C)(C)c1ccc(S(=O)(=O)Nc2ccc3[nH]c(C(=O)NC4CC4)c(-c4ccccc4)c3c2)cc1` [Example 1, 5-(4-tert-Butylbenzenesulfonylamino)-3-phenyl-1H-indole-2-carboxylic acid-cyclopropylamide] showed a pIC50 in series [1] (Biological Data table) of 5.47. For the same compound, the solubility in “Solubility” (setting [3]) is 1 µg/mL (≈ 2.05 µM).
As to `CC(C)(C)c1ccc(S(=O)(=O)Nc2ccc3[nH]c(C(=O)Nc4cccnc4)c(-c4ccccc4)c3c2)cc1` [Example 2, 5-(4-tert-Butylbenzenesulfonylamino)-3-phenyl-1H-indole-2-carboxylic acid-pyridin-3-ylamide], the solubility in the series “Solubility” (setting [3]) was 1 µg/mL (≈ 1.91 µM).
On to `CC(C)(C)c1ccc(S(=O)(=O)Nc2ccc3[nH]c(C(=O)NC4CCCCC4)c(-c4ccccc4)c3c2)cc1` [Example 3, 5-(4-tert-Butylbenzenesulfonylamino)-3-phenyl-1H-indole-2-carboxylic acid-cyclohexylamide], for which the pIC50 in series [1] (Biological Data table) was 5.70. Further, the solubility in “Solubility” (setting [3]) is 1 µg/mL (≈ 1.89 µM).
With `CN(C)CCNC(=O)c1[nH]c2ccc(NS(=O)(=O)c3ccc(C(C)(C)C)cc3)cc2c1-c1ccccc1` [Example 6, 5-(4-tert-Butylbenzenesulfonylamino)-3-phenyl-1H-indole-2-carboxylic acid-(2-dimethylaminoethyl)amide], the solubility in the series “Solubility” (setting [3]) and in the series “Solubility” (comparison table) was 0.1 µg/mL (≈ 0.193 µM) in each case.
The compound `CCCNC(=O)c1[nH]c2ccc(NS(=O)(=O)c3ccc(C(C)(C)C)cc3)cc2c1-c1ccccc1` [Example 9, 5-(4-tert-Butylbenzenesulfonylamino)-3-phenyl-1H-indole-2-carboxylic acid propylamide] gave a pIC50 in series [1] (Biological Data table) of 5.28. Moreover, the solubility in “Solubility” (setting [3]) is 1.5 µg/mL (≈ 3.06 µM).
As for `CCCNC(=O)c1[nH]c2ccc(NS(=O)(=O)c3ccc(OC(F)(F)F)cc3)cc2c1-c1ccccc1` [Example 10, 5-(4-(Trifluoromethoxy)benzenesulfonylamino)-3-phenyl-1H-indole-2-carboxylic acid propylamide], in the series “Solubility” (setting [3]), the solubility is 2.1 µg/mL (≈ 4.06 µM).
Take `CC(C)(C)c1ccc(S(=O)(=O)Nc2ccc3[nH]c(C(=O)NCCN4CCOCC4)c(-c4ccccc4)c3c2)cc1` [Example 19, 5-(4-tert-Butylbenzenesulfonylamino)-3-phenyl-1H-indole-2-carboxylic acid-(2-morpholin-4-ylethyl)amide]: the pIC50 in series [1] (Biological Data table) is 6.82. Besides, the solubility in “Solubility” (setting [3]) was determined as 4 µg/mL (≈ 7.13 µM).
In series [1] (Biological Data table), `CN1CCN(NC(=O)c2[nH]c3ccc(NS(=O)(=O)c4ccc(C(C)(C)C)cc4)cc3c2-c2ccccc2)CC1` [Example 20, 5-(4-tert-Butylbenzenesulfonylamino)-3-phenyl-1H-indole-2-carboxylic acid-(4-methylpiperazin-1-yl)amide] had a pIC50 of 5.59.
With `CC(C)(C)c1ccc(S(=O)(=O)Nc2ccc3[nH]c(C(=O)Nc4ccncc4)c(-c4ccccc4)c3c2)cc1` [Example 21, 5-(4-tert-Butylbenzenesulfonylamino)-3-phenyl-1H-indole-2-carboxylic acid-pyrindin-4-ylamide], the pIC50 in series [1] (Biological Data table) is 5.47. In addition, the solubility in “Solubility” (setting [3]) was found to be 0.1 µg/mL (≈ 0.191 µM).
For `CN(C)CCNC(=O)c1[nH]c2ccc(NS(=O)(=O)c3ccc(C(C)(C)C)cc3)cc2c1-c1ccccc1Cl` [Example 24, 5-(4-tert-Butylbenzenesulfonylamino)-3-(2-chlorophenyl)-1H-indole-2-carboxylic acid-(2-dimethylaminoethyl)amide] the same measures were 5.80 and 8 µg/mL (≈ 14.5 µM).
For `CN(C)CCNC(=O)c1[nH]c2ccc(NS(=O)(=O)c3ccc(C(C)(C)C)cc3)cc2c1-c1cccc(Cl)c1` [Example 25, 5-(4-tert-Butylbenzenesulfonylamino)-3-(3-chlorophenyl)-1H-indole-2-carboxylic acid-(2-dimethylaminoethyl)amide], the pIC50 in series [1] (Biological Data table) and in series [1] (setting [2]) was 6.20 each time. The solubility in “Solubility” (setting [3]) and in the series “Solubility” (comparison table) was 5 µg/mL (≈ 9.04 µM) throughout.
Turning to `CN(C)CCNC(=O)c1[nH]c2ccc(NS(=O)(=O)c3ccc(C(C)(C)C)cc3)cc2c1-c1ccc(Cl)cc1` [Example 26, 5-(4-tert-Butylbenzenesulfonylamino)-3-(4-chlorophenyl)-1H-indole-2-carboxylic acid-(2-dimethylaminoethyl)amide], the pIC50 in series [1] (Biological Data table) was 5.00. The solubility in “Solubility” (setting [3]) was found to be 3 µg/mL (≈ 5.42 µM).
The like results for `Cc1ccccc1-c1c(C(=O)NCCN(C)C)[nH]c2ccc(NS(=O)(=O)c3ccc(C(C)(C)C)cc3)cc12` [Example 28, 5-(4-tert-Butylbenzenesulfonylamino)-3-(2-methylphenyl)-1H-indole-2-carboxylic acid-(2-dimethylaminoethyl)amide] were, in that order, 5.57 and 5 µg/mL (≈ 9.39 µM).
For `Cc1ccc(-c2c(C(=O)NCCN(C)C)[nH]c3ccc(NS(=O)(=O)c4ccc(C(C)(C)C)cc4)cc23)cc1` [Example 29, 5-(4-tert-Butylbenzenesulfonylamino)-3-(4-methylphenyl)-1H-indole-2-carboxylic acid-(2-dimethylaminoethyl)amide] the same measures were 5.70 and 7 µg/mL (≈ 13.1 µM).
Take `COc1ccc(-c2c(C(=O)NCCN(C)C)[nH]c3ccc(NS(=O)(=O)c4ccc(C(C)(C)C)cc4)cc23)cc1` [Example 31, 5-(4-tert-Butylbenzenesulfonylamino)-3-(4-methoxyphenyl)-1H-indole-2-carboxylic acid-(2-dimethylaminoethyl)amide]: the pIC50 in series [1] (Biological Data table) was 5.92. In addition, the solubility in “Solubility” (setting [3]) turned out to be 7 µg/mL (≈ 12.8 µM).
The like results for `CN(C)CCNC(=O)c1[nH]c2ccc(NS(=O)(=O)c3ccc(C(C)(C)C)cc3)cc2c1-c1cccnc1` [Example 32, 5-(4-tert-Butylbenzenesulfonylamino)-3-pyridin-3-yl-1H-indole-2-carboxylic acid-(2-dimethylaminoethyl)amide] were, in that order, 5.89 and 55 µg/mL (≈ 106 µM).
Compound `CC(C)(C)c1ccc(S(=O)(=O)Nc2ccc3[nH]c(C(=O)NCCO)c(-c4ccccc4)c3c2)cc1` [Example 37, 5-(4-tert-Butylbenzenesulfonylamino)-3-phenyl-1H-indole-2-carboxylic acid-(2-hydroxyethyl)amide] showed a pIC50 in series [1] (Biological Data table) of 7.15. Besides, the solubility in the series “Solubility” (setting [3]) was determined as 13 µg/mL (≈ 26.4 µM).
On to `CC(C)(C)c1ccc(S(=O)(=O)Nc2ccc3[nH]c(C(=O)NC4CCOCC4)c(-c4ccccc4)c3c2)cc1` [Example 40, 5-(4-tert-Butylbenzenesulfonylamino)-3-phenyl-1H-indole-2-carboxylic acid-(tetrahydropyran-4-yl)amide], for which the pIC50 in series [1] (Biological Data table) and in series [1] (setting [2]) was 7.07 throughout. The solubility in “Solubility” (setting [3]) and in the series “Solubility” (comparison table) was 5 µg/mL (≈ 9.4 µM) throughout.
